In US20250346582A1, “SPLEEN TYROSINE KINASE INHIBITORS AND METHODS OF USE THEREOF” (THE BOARD OF TRUSTEES OF THE UNIVERSITY OF ILLINOIS, priority 2022, published 2025):

Legend:
pSyk = molecular target: T1, pSyk (Homo sapiens, UniProt P43405); test: Western blot inhibition of Syk phosphorylation in Raji B cells; format: cell-based; conditions: Immunoblotting, Western blot assay in Raji B cells
T1 construct: endogenous in cells; host or cells: Raji B cells, IgM-stimulated
Method: (a) Cellular efficacy of WC35, WC36, and WC38 was determined by dose-dependent inhibition of Syk phosphorylation in Raji B cells. (b) Imax and IC50 values were determined by non-linear least-squares analysis of data using the equation: […] Each data represents average ±s.d. from triplicate measurements. […] Jurkat T cells were stimulated by OKT3. Cells were seeded at a density of 3.0×10^5 cells/well prior to incubation with inhibitors. […] IgG2 for AML cells, IgM for Raji B cells, and OKT3 (Biolegend) for Jurkat cells. […] Samples were analyzed by SDS-PAGE. Proteins were separated and transferred to Immobilon-P polyvinylidene difluoride membrane (Millipore Sigma). […] The chemiluminescence intensity of protein bands in the gel was analyzed and documented by the Azure […] Imaging System.

[1] = test system: phosphorylation of Syk, STAT3/5 and ERK1/2; test: Western blot of IgG2-stimulated phosphorylation in MV4-11 AML cells; format: cell-based; conditions: MV4-11 cells, 5 μM overnight
Method: FIGS. 2A-2D show the inhibition of the signaling activity and proliferation of MV4-11 AML cells by Syk-cSH2 inhibitors. […] GAPDH was used as a gel loading control. […] Imax and IC50 values were determined by non-linear least-squares analysis of data using the equation: I=Imax/(1+IC50/[inhibitor]) where I indicates % inhibition at a given inhibitor concentration ([inhibitor]). (c) Inhibition of IgG2-stimulated phosphorylation of Syk, STAT3/STAT5 and ERK1/2 in entospletinib-resistant MV-4-11 cells by 5 μM of WC35, WC36, and WC38.
(§1) Cells were seeded at a density of 3.0×10^5 cells/well prior to incubation with inhibitors. Cells were incubated with 1-5 μM of Syk inhibitors overnight and stimulated with different antibodies: IgG2 for AML cells, IgM for Raji B cells, and OKT3 (Biolegend) for Jurkat cells. The cells were lysed in NP40 lysis buffer (50 mM Tris, pH 7.5, 150 mM NaCl, 1 mM EDTA, 1% NP40, 10% glycerol, 10 mM NaF, 10 mM Na3VO4, and the protease inhibitor cocktail) at 4° C. and the cell debris was removed by centrifugation. Samples were analyzed by SDS-PAGE. Proteins were separated and transferred to Immobilon-P polyvinylidene difluoride membrane (Millipore Sigma). The membrane was blocked with 5% bovine serum albumin for 1 h and incubated overnight at 4° C. with various antibodies (1:1000 dilution for all antibodies). After the unbound antibodies were removed by washing with 0.1% Tris buffer saline with 0.1% Tween20, the membranes were incubated with the horseradish peroxidase secondary antibody (1:5000 dilution) for 1 h at room temperature. The membranes were washed three more times with 0.1% Tris buffer saline with 0.1% Tween20 to remove the unbound horseradish peroxidase secondary antibody before imaging. The chemiluminescence intensity of protein bands in the gel was analyzed and documented by the Azure 500Q Imaging System.

[2] = test system: phosphorylation of ERK1/2 and STAT3/5; test: Western blot of phosphorylation in HL60 cells; format: cell-based; conditions: RAS-mutated HL60 cells; 5 μM
Method: FIGS. 3A-3D show the inhibition of the signaling activity and proliferation of HL-60 AML cells by Syk-cSH2 inhibitors. […] DMSO was used as a negative control and GAPDH as a gel loading control. […] (c) Inhibition of phosphorylation of Syk, STAT3/5 and ERK1/2 in patient-derived primary AML cells by WC36. Cells were cultured overnight in the presence of CD34+ cytokine supplement. DMSO was used as a negative control. Representative data from one (Patient 1) of four patient samples are shown here. (d) Inhibition of the proliferation of four patient AML cells by WC36 measured by the colony growth assay. The number of colonies after WC36 treatment was normalized to the enumerated colonies after DMSO treatment.
as §1

MV4-11 cells = test: XTT cell proliferation assay, MV4-11 cells; format: cell-based
Method: MV4-11 or HL-60 cells were seeded into a clear-bottom 96-well plate containing varying concentrations of inhibitors in the optimal growth media described above and the mixtures were incubated for 16 h. Cells were then treated with a mixture of XTT-labeling reagents and the electron coupling reagents according to the manufacturer's protocol (Roche). After 4 h, the absorbance values at 475 nm and at 660 nm were simultaneously measured by Synergy™ Neo spectrofluorometer at 25° C. Cells with the growth media was used for background correction.

BLNK-SH2 = molecular target: T2, BLNK-SH2 (Homo sapiens, UniProt Q8WV28); test: Fluorescence quenching vesicle binding assay, BLNK-SH2; conditions: Table 4; POPC/POPS/PIP3/dabsyl-PE (67:20:3:10) vesicles (40 μM); read-out: Imax (%)
T2 construct: All SH2 domain constructs were cloned into the pRSET-B vector; polyhistidine (N); made in house; host or cells: Escherichia coli BL21 (DE3) pLysS
T2 sequence (Q8WV28 346-453 limits assumed): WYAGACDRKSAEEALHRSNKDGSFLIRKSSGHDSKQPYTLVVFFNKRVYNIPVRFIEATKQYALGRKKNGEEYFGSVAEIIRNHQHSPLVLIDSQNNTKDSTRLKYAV
Method: The membrane-binding assay is based on fluorescence quenching of EGFP fused to a SH2 domain by a dark quencher containing lipid, dabsyl-PE, incorporated in lipid vesicles. The plate reader assay was performed using the Synergy™ Neo spectrofluorometer at 25° C. Nontreated black polystyrene 96-well plates (Corning) were used. Protein (10-50 nM) with the increasing concentration of vesicles with a given lipid composition in 20 mM Tris buffer, pH 7.4, containing 0.16 M NaCl was added to each row of wells and the EGFP fluorescence emission at 516 nm was measured with excitation set at 485 nm. Z′ factor for the assay system was determined as described^74. Imax and IC50 values of inhibitors were determined using the equation, I=Imax/(1+IC50/[I]) where I and [I] indicate % inhibition and inhibitor concentration, respectively. The average and standard deviation values were obtained from triplicate determinations.
We also optimized a recently developed fluorescence quenching-based lipid-binding assay^47 for high-throughput screening of these molecules for their inhibitory activity against the PIP3-SH2 interaction. Specifically, we expressed SH2 domains as EGFP-tagged proteins and directly quantified their membrane binding by monitoring the quenching of EGFP fluorescence emission intensity by a dark quencher-containing lipid, N-dimethylaminoazo-benzenesulfonyl-phosphatidylethanolamine (dabsyl-PE), incorporated in the vesicles. We then screened for compounds that inhibited binding of Syk-cSH2, BLNK-SH2, and PLCγ2-cSH2, respectively, to 1-palmitoyl-2-oleoyl-PC (POPC)/1-palmitoyl-2-oleoyl-PS (POPS)/PIP3/dabsyl-PE (67:20:3:10) vesicles while eliminating those that inhibit their non-specific binding to anionic POPC/POPS/dabsyl-PE (70:20:10) vesicles. The quality of the screening system was evaluated using 1% dimethylsulfoxide (DMSO) and 20 μM D-myo-inositol-1,3,4,5-tetraphosphate (IP4) as negative and positive controls, respectively. The clear separation of positive and negative control data and the average Z′-factor of 0.7 supported the robustness of our system for high-throughput screen of PIP3-SH2 interaction inhibitors.

| IC50 (pSyk) [µM] | Imax (%) (pSyk) | Emax (BLNK-SH2) [%] | SMILES | inhibition of phosphorylation of Syk, STAT3/5 and ERK1/2 [1] | inhibition of phosphorylation of ERK1/2 and STAT3/5 [2] | inhibition of cell proliferation (XTT assay) (MV4-11 cells) |
| --- | --- | --- | --- | --- | --- | --- |
| 0.18 ± 0.05 | 58 ± 5 | < 10 | [N-]=[N+]=C(C(=O)OC1CCCCC1)C(Nc1ncccn1)c1ccco1 (racemic) [WC35, Cyclohexyl 2-diazo-3-(furan-2-yl)-3-(pyrimidin-2-ylamino)propanoate] | less active than entospletinib for both Syk and ERK1/2 inhibition | less active then WC36 | modestly more active than WC38 and entospletinib |
| 0.052 ± 0.01 | 67 ± 5 | < 10 | [N-]=[N+]=C(C(=O)OC1CCCCC1)C(Nc1ncccn1)c1c[nH]c2ccccc12 (racemic) [WC36, Cyclohexyl 2-diazo-3-(1H-indol-3-yl)-3-(pyrimidin-2-ylamino)propanoate] | suppressed phosphorylation of Syk and STAT3/5 as potently as entospletinib but were modestly less active than entospletinib for ERK1/2 inhibition | potent against phosphorylation of ERK1/2 and STAT3 | modestly more active than WC38 and entospletinib |
| 0.18 ± 0.03 | 65 ± 3 | < 10 | [N-]=[N+]=C(C(=O)OC1CCCCC1)C(Nc1ncccn1)c1ccc[nH]1 (racemic) [WC38, Cyclohexyl 2-diazo-3-(pyrimidin-2-ylamino)-3-(1H-pyrrol-2-yl)propanoate] | suppressed phosphorylation of Syk and STAT3/5 as potently as entospletinib but were modestly less active than entospletinib for ERK1/2 inhibition | less active then WC36 |  |
